Experimental data reported in paper PMC9014415, “Repositioning of a Diaminothiazole Series Confirmed to Target the Cyclin-Dependent Kinase CRK12 for Use in the Treatment of African Animal Trypanosomiasis” (Journal of Medicinal Chemistry, 2022).
Values joined by “and” are separate entries in the source; they are usually repeats but may differ in a detail not shown here. Identical values can stand only once. Like-named read-outs stand apart in the source and are kept apart here.

Columns and labels:
[1] = Pharmacokinetic studies in male Friesian-Holstein cattle, IV and IM (Ridgeway); format: in vivo; details: for Vd: read-out: Vdss
Description: 2.7 Pharmacokinetic studies in cattle (see Table 2). Studies conducted at Ridgeway Compound 1 was dosed IM at 5 mg free base/kg (dose volume 2mL/10 kg; dose vehicle 10% N-Methyl-2-Pyrrolidinone (NMP), 40% 2-pyrrolidinone, 30% PEG400, 20% deionized water) or IV at 2.5 mg free base/kg (dose volume 0.4 mL/10 kg; 2.5% NMP, 30% PEG400, 37.5% propylene glycol, 30% water by volume) to male ruminating Holstein-Friesian cross animals (n = 4). Blood samples were taken from each animal using 18-G needles into EDTA (K2) vacutainers before dosing and at […]
a cool box containing iced water and were processed within 2 h of collection (Figure S2, Table S1).
Compound 2 was dosed IM at 10 mg free base/kg (dose volume 2 mL/10 kg; dose vehicle 40% 0.3 M Acetate Buffer, 20% Kolliphor EL, 20% glycerol formal, 20% 2-pyrrolidone) or IV at 2 mg free base/kg (dose volume 0.4 mL/10 kg; 40% 0.3 M Acetate Buffer, 20% Kolliphor EL, 20% glycerol formal, 20% 2-pyrrolidone) to male ruminating Holstein-Friesian cross animals (n = 3). Blood samples were taken from each animal using 18-G needles into EDTA (K2) vacutainers before dosing […]
into a cool box containing iced water and were processed within 2 h of collection. […]

[2] = system: T. congolense (KONT2/133); experiment: Cattle efficacy for compound 2, intravenous infusion (Clinvet), T. congolense; format: in vivo, Trypanosoma congolense; details: Friesian-Holstein cattle infected with T. congolense; n = 4; at 100 days
Description: Unfortunately, an injection site tolerability issue arose during the pharmacokinetic study in cattle that was not evident in rats. […] To circumvent these issues, compound 2 was assessed in an in vivo proof of concept efficacy study in Friesian-Holstein cattle using an IV infusion regimen. The study was conducted in four animals infected with T. congolense (KONT2/133) and four animals infected with T. vivax (STIB719). Three additional animals infected with each strain formed the vehicle control groups and were dosed IV once daily with saline. Pharmacokinetic modeling was used to define a dosing regimen that mimics the blood concentration–time profile that delivered cure in mice (10 mg/kg SC once daily for 2 days, with a Ctrough of >20 ng/mL (>38 nM)). A continuous infusion over 36 h and two loading doses 24 h apart were required. […]
Response to treatment was determined by monitoring parasitaemia twice a week until day 21. […]
In each of the cattle efficacy studies (3.3, 3.4 and 3.5), efficacy was assessed primarily on absence of recrudescence of parasitaemia for 100 days after treatment administration together with improvements in Packed Cell Volume, body weight and clinical signs of infected compared with uninfected animals. […]

[3] = cattle, IM 5 mg/kg, individual animals 2754, 7462, 1753, 6752
[4] = cattle, IM 5 mg/kg, n = 4, mean
[5] = cattle, IV 2.5 mg/kg, individual animals 2754, 7462, 1753, 6752, 2.5 mg/kg
[6] = male, Holstein-Friesian cross, bovine, blood, im, 5 mg/kg, cattle, IM 5 mg/kg, individual animals 2754, 7462, 1753, 6752
[7] = cattle, IM 10 mg/kg, individual animals 1644, 3646, 7643
[8] = cattle, IM 10 mg/kg, n = 3, mean
[9] = cattle, IV 2 mg/kg, individual animals 1644, 3646, 7643, 2 mg/kg
[10] = cattle, IV 2 mg/kg, n = 3, mean, 2 mg/kg
[11] = male, Holstein-Friesian cross, bovine, blood, im, 10 mg/kg, cattle, IM 10 mg/kg, individual animals 1644, 3646, 7643
[12] = male, Holstein-Friesian cross, bovine, blood, im, 10 mg/kg, cattle, IM 10 mg/kg, n = 3, mean
[13] = male, Holstein-Friesian cross, bovine, blood, iv, 2 mg/kg, cattle, IV 2 mg/kg, individual animals 1644, 3646, 7643
[14] = male, Holstein-Friesian cross, bovine, blood, iv, 2 mg/kg, cattle, IV 2 mg/kg, n = 3, mean

CC(C)CS(=O)(=O)N[C@H]1CC[C@H](Nc2nc(N)c(C(=O)c3c(F)cccc3F)s2)CC1 [Compound 1, N-((trans)-4-((4-Amino-5-(2,6-difluorobenzoyl)thiazol-2-yl)amino)cyclohexyl)-2-methylpropane-1-sulfonamide]
AUC 0-∞ [1, 3]: 26,000 ng-min/mL and 15,000 ng-min/mL and 22,000 ng-min/mL
Cmax [1, 3]: 70 ng/mL and 128 ng/mL and 118 ng/mL and 216 ng/mL
F [1, 3]: 11% and 7% (2×)
Tmax [1, 3]: 0.25 h
Cmax [1, 4]: 130 ± 60 ng/mL
F [1, 4]: 8.8 ± 2.1%
AUC 0-∞ [1, 5]: 120,000 ng-min/mL (2×) and 160,000 ng-min/mL
Clb [1, 5]: 24 mL/min/kg and 20 mL/min/kg and 21 mL/min/kg and 15 mL/min/kg
Vdss [1, 5]: 3.5 L/kg and 1.8 L/kg and 2.5 L/kg and 1.7 L/kg
half-life [1, 5]: 1.7 h and 2.4 h
Clb ([1]; cattle, IV 2.5 mg/kg, n = 4, mean ± SD): 20 ± 4 mL/min/kg
AUC(0-inf) [1, 6]: 350 ng·h/mL
bioavailability [1, 6]: 10%
Tmax ([1]; male, Holstein-Friesian cross, bovine, blood, im, 5 mg/kg, cattle, IM 5 mg/kg, individual animals 2754, 7462, 1753, 6752, read-out: Tmax): 0.5 h
bioavailability ([1]; male, Holstein-Friesian cross, bovine, blood, im, 5 mg/kg, cattle, IM 5 mg/kg, n = 4, mean): 9%
Cmax ([1]; male, Holstein-Friesian cross, bovine, blood, im, 5 mg/kg, cattle, IM 5 mg/kg, n = 4, mean, read-out: Cmax): 133 ng/mL
AUC(0-inf) ([1]; male, Holstein-Friesian cross, bovine, blood, iv, 2.5 mg/kg, cattle, IV 2.5 mg/kg, individual animals 2754, 7462, 1753, 6752): 1670 ng·h/mL
half-life ([1]; male, Holstein-Friesian cross, bovine, blood, iv, 2.5 mg/kg, cattle, IV 2.5 mg/kg, individual animals 2754, 7462, 1753, 6752, read-out: Half-life (converted)): 1.2 h
AUC(0-inf) ([1]; male, Holstein-Friesian cross, bovine, blood, iv, 2.5 mg/kg, cattle, IV 2.5 mg/kg, n = 4, mean ± SD): 2170 ng·h/mL
half-life ([1]; male, Holstein-Friesian cross, bovine, blood, iv, 2.5 mg/kg, cattle, IV 2.5 mg/kg, n = 4, mean ± SD, read-out: half-life (converted)): ~1.8 h
AUC(0-t) ([1]; male, Holstein-Friesian cross, bovine, blood, cattle, IM 5 mg/kg, mean, read-out: AUC0-8 (converted)): 349 ng·h/mL
AUC(0-inf) ([1]; male, Holstein-Friesian cross, bovine, whole blood, im, 5 mg/kg, cattle, IM 5 mg/kg, n = 4, mean ± SD): 350 ng·h/mL
Tmax ([1]; male, Holstein-Friesian cross, bovine, whole blood, im, 5 mg/kg, cattle, IM 5 mg/kg, n = 4, mean ± SD, read-out: Tmax): 0.44 ± 0.13 h
Vd ([1]; male, Holstein-Friesian cross, bovine, whole blood, iv, 2.5 mg/kg, cattle, IV 2.5 mg/kg, n = 4, mean ± SD): 2.4 ± 0.8 L/kg

CC(C)CS(=O)(=O)N[C@H]1CC[C@H](Nc2nc(N)c(C(=O)c3c(F)cc(CN(C)C)cc3F)s2)CC1 [Compound 2, N-(trans)-[4-[[4-Amino-5-[4-(dimethylaminomethyl)-2,6-difluoro-benzoyl]thiazol-2-yl]amino]cyclohexyl]-2-methyl-propane-1-sulfonamide]
Cav ([1]; Friesian cattle, single IM 10 mg free base/kg): 253 ng/mL
AUC 0-∞ [1, 7]: 510,000 ng-min/mL and 460,000 ng-min/mL
Cmax [1, 7]: 950 ng/mL and 1,700 ng/mL and 2,600 ng/mL
F [1, 7]: 75% and 66%
AUC 0-∞ [1, 8]: 500,000 ± 30,000 ng-min/mL
Cmax [1, 8]: 1700 ± 800 ng/mL
F [1, 8]: 73 ± 6%
Tmax [1, 8]: 1.3 ± 0.6 h
Injection site tolerability ([1]; cattle, IM, pharmacokinetic study): irritancy and necrosis
AUC 0-∞ [1, 9]: 94,000 ng-min/mL and 180,000 ng-min/mL
Clb [1, 9]: 14 mL/min/kg and 21 mL/min/kg and 11 mL/min/kg
half-life [1, 9]: 3 h
AUC 0-∞ [1, 10]: 140,000 ± 40,000 ng-min/mL
Clb [1, 10]: 15 mL/min/kg and 15 ± 5 mL/min/kg
Vdss [1, 10]: 2.3 ± 0.6 L/kg
AUC ([1]; male, Holstein-Friesian cross, bovine, blood, 10 mg/kg, Friesian cattle, single IM 10 mg free base/kg): 7330 ng·h/mL
AUC(0-inf) [1, 11]: 8830 ng·h/mL
bioavailability [1, 11]: 78%
Tmax ([1]; male, Holstein-Friesian cross, bovine, blood, im, 10 mg/kg, cattle, IM 10 mg/kg, individual animals 1644, 3646, 7643, read-out: Tmax): 2 h
AUC(0-inf) [1, 12]: 8170 ng·h/mL
bioavailability [1, 12]: 74%
Cmax ([1]; male, Holstein-Friesian cross, bovine, blood, im, 10 mg/kg, cattle, IM 10 mg/kg, n = 3, mean, read-out: Cmax): 1720 ng/mL
Tmax ([1]; male, Holstein-Friesian cross, bovine, blood, im, 10 mg/kg, cattle, IM 10 mg/kg, n = 3, mean, read-out: Tmax): 1 h
concentration at 24 h ([1]; male, Holstein-Friesian cross, bovine, blood, intramuscular, Friesian cattle, single IM 10 mg free base/kg, read-out: Cmin (24 h)): 20 ng/mL
AUC(0-inf) [1, 13]: 2330 ng·h/mL
half-life ([1]; male, Holstein-Friesian cross, bovine, blood, iv, 2 mg/kg, cattle, IV 2 mg/kg, individual animals 1644, 3646, 7643, read-out: Half-life (converted)): 6 h
Vd [1, 13]: 2 L/kg
AUC(0-inf) [1, 14]: 2170 ng·h/mL
Vd [1, 14]: 3 L/kg
half-life ([1]; male, Holstein-Friesian cross, bovine, whole blood, iv, 2 mg/kg, cattle, IV 2 mg/kg, n = 3, mean, read-out: half-life (converted)): 4 ± 2 h
Efficacy in cattle, IV bolus and infusion [2]: cured
